{"source": "patent US20250268980A1", "about": "“AN ANTICANCER THERAPY TARGETING RAS AND OTHER ONCOGENIC SIGNALS BY INHIBITION OF DYNAMIC BLEBBING AND/OR SEPTINS” (THE BOARD OF REGENTS OF THE UNIVERSITY OF TEXAS SYSTEM, priority 2022, published 2025)", "assay_type_in_all_cases": "cell-based, human", "key": {"A375 cells": {"system": "A375 cells", "experiment": "Detached/adhered viability assay, ethidium homodimer staining, A375", "details": "for anoikis resistance (cell death adhered vs detached): 24 hours", "method": "Bleb formation was inhibited using wheat germ agglutinin (WGA), a lectin that reduces plasma membrane deformability by crosslinking components of the glycocalyx. […] To investigate putative bleb function as a driver of anchorage-independent cell survival assays were designed that consistently minimized both cell-substrate and cell-cell attachment over a period of 24 hours. This was accomplished by seeding cells at very low density (approx. 250 or 100 cells/ml) in non-adherent culture dishes under constant gentle agitation. For controls, cells were grown at identical concentrations in adherent variants of the same culture dishes. Together, this generated pairs of ‘detached’ and ‘adhered’ cell populations in paired same-day experiments.\nCell Culture and Reagents. MV3 cells were obtained from MD Anderson Cancer Center. A375 cells (ATCCR CRL1619) were acquired from ATCC. M498 cells were acquired from UT Southwestern.\nDetached/Adhered Cell Culture. […] Drug treatments, solvent-only controls, or CellEvent caspase activity sensor were added to suspensions if appropriate to the experiment, and then immediately transferred to both an uncoated (for detached cells) and ibiTreated (for adhered cells) 8-well ibidi u-slide (ibidi cat #80821 and 80826) at 200 μl/well. Both slides were stored at 37° C. and 5% CO2 for either 24 hours (hrs) for viability assays, 3 hrs for ERK activity assays or 4 hours for caspase activation assays. Uncoated slides (detached) were nutated at 20 rpm during this time. […] For experiments using MAPKi A375 cells, Dabrafenib and Trametinib treatment was continued over the course of the experiment.\n(§1) Cells Grown in VitroGel Coffins. VitroGel coffins were prepared by embedding MV3 or A375 cells in VitroGel 3D or RGD at 1:1 dilution according to manufacturer's instructions (TheWell Biosciences, sku #TWG001). […] A 1:1 solution of VitroGel and VitroGel Dilution Solution was made and added to cell suspension at a ratio of 4:1 (VitroGel: cells) using gentle pipetting until well-mixed (with care taken not to form bubbles). Cell/VitroGel solution was transferred to an 8-well uncoated ibidi μ-slide (ibidi cat #80821) at 100 μl/well, spread over the bottom of wells with a pipette tip, and allowed to polymerize at room temperature for 15 minutes. The remainder of the well was then filled with 10% FBS DMEM and slide was stored at 37° C. and 5% CO2 for either 24 hrs for viability assays, 3 hrs for ERK activity assays, or 1 hour for visualization of septins/PI3K activity.\nViability, ERK Activity, and Caspase ActivityCell Counting Assays. Viability, ERK activity, and caspase activity assays were analyzed using live-cell fluorescent and phase-contrast microscopy, performed on a Nikon Ti microscope equipped with an environmental chamber held at 37° C. and 5% CO2 at 20× magnification. For viability assays, cells were stained with ethidium homodimer-1 (Invitrogen cat #E1169) at 4 µM and Hoechst (ThermoFisher cat #H3570) at 10 μg/ml for 15 minutes before imaging. Live and dead cells (as identified by significant cellular ethidium signal) were counted using the Cell Counter ImageJ plugin. For ERK activity assays, live cells carrying ERK-nKTR-GFP and H2B-mCherry were imaged after 3 hours of experimental conditions and high/low ERK activity cells were counted with Cell Counter ImageJ plugin. Cells in which nuclear GFP signals were by eye higher than cytoplasmic signal (“brighter” nucleus visible within “darker” cytoplasm) were labelled ERK low, while cytoplasmic signals equal to or higher than nuclear signal (nucleus indistinguishable from cytoplasm or “darker” nucleus within “brighter” cytoplasm) were labelled ERK high. To control for unconscious bias in making this determination, the identity of all ERK experimental groups were blinded from the analyst. […]"}, "MV3 melanoma cells": {"system": "MV3 melanoma cells", "experiment": "3D cell morphology analysis (blebs, surface curvature) of MV3 cells", "method": "(§2) Cells Embedded in 3D Collagen.\n(§3) 3D Light-Sheet Imaging. […] All images were saved in the OME-TIFF format.\n3D Cell Image Analysis. Cell morphology and septin localization were analyzed principally via u-shape3D similar to the protocol described in Driscoll et al. Nature Methods. 16, 1037-1044 (2019), the disclosure of which is incorporated herein in its entirety. Briefly, 3D images were first deconvolved using either a Richardson-Lucy or Wiener algorithm with an experimentally measured point spread function. Cells were next segmented from the image background using u-shape3D's ‘twoLevel’ mode, which combines a straightforward Otsu threshold of the image to detect the outer cell surface with a blurred version of the image to segment the inside of the cell. The volume segmented from the blurred image was morphologically eroded to ensure the fidelity of the overall segmentation. Cell surfaces were then represented as triangle meshes, and the mean surface curvature at every triangle was calculated according to methods described in Driscoll et al. Nature Methods. 16, 1037-1044 (2019) and Elliott et al., Nat. […] To remove irregularities, the curvature was next smoothed in real space with a median filter of 1 pixel to remove infinities and then slightly diffused along the mesh. Septin and NRAS localization was measured from fluorescence images by extending a sphere of either 1 μm (for septins) or 2 μm (for NRAS) about each mesh triangle and mapping to the triangle the average intensity both within that sphere and the cell. Image intensity was not depth normalized prior to analysis, but was instead measured from the raw, undeconvolved image. […]\nBlebs were also detected according to methods similar to that described in Driscoll et al. Nature Methods. […] Distances from bleb edges were then calculated as the geodesic distance from each triangle to the nearest bleb edge. […] Bleb and septin directional correlations were calculated using spherical statistics, in particular by fitting spherical normal distributions to distributions defined at each mesh triangle."}, "[1]": {"system": "cortical septin structures in MV3 cells", "experiment": "Cortical septin localization (SEPT6-GFP) in MV3 cells", "method": "as §2, §1, §3\n3D Cell Image Analysis. Cell morphology and septin localization were analyzed principally via u-shape3D similar to the protocol described in Driscoll et al. Nature Methods. 16, 1037-1044 (2019), the disclosure of which is incorporated herein in its entirety. Briefly, 3D images were first deconvolved using either a Richardson-Lucy or Wiener algorithm with an experimentally measured point spread function. […] Cell surfaces were then represented as triangle meshes, and the mean surface curvature at every triangle was calculated according to methods described in Driscoll et al. Nature Methods. […] Septin and NRAS localization was measured from fluorescence images by extending a sphere of either 1 μm (for septins) or 2 μm (for NRAS) about each mesh triangle and mapping to the triangle the average intensity both within that sphere and the cell. Image intensity was not depth normalized prior to analysis, but was instead measured from the raw, undeconvolved image. […]\nCortical septin levels were quantified by measuring the mean cytoplasmic intensity of each cell using hand-drawn ROIs that excluded nuclei (performed with the FIJI ImageJ package), and then calculating for each cell its fraction of cortical voxels (intracellular voxels within 0.96 μm of the u-Shape3D-derived surface) that were higher than that cell's mean cytoplasmic intensity (performed using a MATLAB script). NRAS enrichment at the surface was quantified by first calculating the total amount of intracellular signal expected to be within 0.96 μm of the surface if the cell's signal was homogenously distributed between all voxels, and then calculating the percent change between this value and the observed value for each cell. […]"}}, "data": [{"compound": "O=C(Nc1ccccc1)Nc1ccnc(Cl)c1", "note": "[FCF, forchlorfenuron]", "values": [{"measurement": "anoikis resistance (cell death adhered vs detached)", "setting": "A375 cells; non-stressed A375, 50 μM FCF", "value": "no appreciable effect"}, {"measurement": "anoikis resistance (cell death adhered vs detached)", "setting": "A375 cells; pre-stressed A375, 50 μM FCF", "value": "greatly disrupted anoikis resistance"}, {"measurement": "blebbiness", "setting": "MV3 melanoma cells; MV3, FCF treatment", "value": "without altering blebbiness"}, {"measurement": "cortical septin structures", "setting": "[1]; MV3 SEPT6-GFP, FCF treatment", "value": "near-complete ablation of cortical septin structures"}]}, {"compound": "wheat germ agglutinin [WGA]", "values": [{"measurement": "viability", "setting": "A375 cells; adhered A375 pre-incubated 48 hours with 10 nM Dabrafenib and 1 nM Trametinib, WGA", "value": "minimal change in viability"}, {"measurement": "cell death", "setting": "A375 cells; detached A375 pre-incubated 48 hours with 10 nM Dabrafenib and 1 nM Trametinib, WGA", "value": "increased cell death"}, {"measurement": "anoikis resistance upon bleb inhibition", "setting": "A375 cells; pre-stressed A375 cells (overconfluent for 48 hours), WGA", "value": "strongly dependent upon blebbing"}, {"measurement": "cell death", "setting": "A375 cells; unstressed A375 cells, adhered or detached, 24 hours of WGA", "value": "unaffected"}, {"measurement": "bleb density (fraction of cell surface comprised of blebs)", "setting": "MV3 melanoma cells; MV3 cells, different concentrations of WGA, morphological motif analysis", "value": "dosage dependent inhibitor of bleb density"}, {"measurement": "mean plasma membrane curvature above K=0.4 μm-1", "setting": "MV3 melanoma cells; control vs WGA-treated MV3 cells", "value": "reduced"}, {"measurement": "cortical septin levels (fraction of cortical voxels above mean cytoplasmic SEPT6-GFP intensity)", "setting": "[1]; MV3, relative to control conditions", "value": "significantly reduced cortical septin levels"}, {"measurement": "septin localization (cortical levels)", "setting": "[1]; MV3 SEPT6-GFP, WGA (50 ug/ml), VitroGel, H1152 (1 μM), NSC668394 (10 μM)", "value": "pronounced effects on septin localization, reducing cortical levels"}]}]}
